Reference: patent publication US9510598B2, “Nitrogen-containing heterocyclic compounds for plant disease control” (BAYER CROPSCIENCE AG, priority 2012, dated 2016)
Where two headings read alike, the source gives them in different places.

What was measured:
[1] = format: physicochemical
Pyrenophora teres = test: In vivo preventive test on Pyrenophora teres (net blotch on barley); settings: 500 ppm; barley plants sprayed 24 hours before contamination; grading 12 days after contamination vs control plants
Method: Barley plants (“Plaisant” variety), sown in starter cups on a 50/50 peat soil-pozzolana substrate and grown at 22° C. (12 h)/20° C. (12 h), are treated at the 1-leaf stage (10 cm height) by spraying with the active ingredient prepared as described above. Plants, used as controls, are treated with the mixture of acetone/tween/DMSO/water not containing the active material. After 24 hours, the plants are contaminated by spraying the leaves with an aqueous suspension of Pyrenophora teres spores (12 000 spores per ml). The spores are collected from a 12-day-old culture. […] Grading (% of efficacy) is carried out 12 days after the contamination, in comparison with the control plants.

Botrytis cinerea = test: In vivo preventive test on Botrytis cinerea (grey mould); settings: 500 ppm; gherkin plants sprayed 24 hours before contamination; grading 4-5 days after contamination vs control plants
In short: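 Gherkin plants ("Vert petit de Paris") sprayed with compound at Z11 cotyledon stage, then inoculated 24 h later with B. cinerea spores (50 000/ml) in PDB/fructose/NH4NO3/KH2PO4 nutrient solution. Incubated at 17 °C, 80% RH; % efficacy versus solvent-treated controls graded 4–5 days after contamination.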

Puccinia recondita = test: In vivo preventive test on Puccinia recondita (brown rust on wheat); settings: 500 ppm; wheat plants sprayed 24 hours before contamination; grading 10 days after contamination vs control plants
Method: Wheat plants (“Scipion” variety), sown in starter cups on a 50/50 peat soil-pozzolana substrate and grown at 22° C. (12 h)/20° C. (12 h), are treated at the 1-leaf stage (10 cm height) by spraying with the active ingredient prepared as described above. Plants, used as controls, are treated with the mixture of acetone/tween/DMSO/water not containing the active material. After 24 hours, the plants are contaminated by spraying the leaves with an aqueous suspension of Puccinia recondita spores (100 000 spores per ml).

Septoria tritici = test: In vivo preventive test on Septoria tritici (leaf spot on wheat); settings: 500 ppm; wheat plants sprayed 24 hours before contamination; grading 21 to 28 days after contamination vs control plants
In short: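 Scipion wheat at 1-leaf stage sprayed with compound, controls receiving acetone/tween/DMSO/water vehicle; 24 h later leaves inoculated with Septoria tritici spores (500 000 spores per ml). Efficacy (%) graded versus control plants 21 to 28 days after contamination.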

Sphaerotheca fuliginea = test: In vivo preventive test on Sphaerotheca fuliginea (powdery mildew on cucurbits); settings: 500 ppm; gherkin plants sprayed 24 hours before contamination; grading 12 days after contamination vs control plants
In short: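 Preventive spray of gherkin plants at Z11 cotyledon stage, grown at 24° C; inoculation 24 hours later with Sphaerotheca fuliginea spores (100 000 spores per ml). Efficacy graded 12 days post-inoculation as % versus solvent-treated control plants.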

Uromyces appendiculatus = test: In vivo preventive test on Uromyces appendiculatus (bean rust); settings: 500 ppm; bean plants sprayed 24 hours before contamination; grading 10 days after contamination vs control plants
Method: Bean plants (“Saxa” variety), sown in starter cups on a 50/50 peat soil-pozzolana substrate and grown at 24° C., are treated at the 2-leaf stage (9 cm height) by spraying with the active ingredient prepared as described above. Plants, used as controls, are treated with the mixture of acetone/tween/DMSO/water not containing the active material. After 24 hours, the plants are contaminated by spraying the leaves with an aqueous suspension of Uromyces appendiculatus spores (150 000 spores per ml).

Phytophthora infestans = format: in vivo; settings: 500 ppm; tomato plants sprayed 24 hours before contamination; grading 5 days after contamination vs control plants
Alternaria brassicae = test: In vivo preventive test on Alternaria brassicae (leaf spot on radish); settings: 500 ppm; radish plants sprayed 24 hours before contamination; grading 5 days after contamination vs control plants
Method: Radish plants (“Pernod Clair” variety), sown in starter cups on a 50/50 peat soil-pozzolana substrate and grown at 17° C., are treated at the 2-leaf stage by spraying with the active ingredient prepared as described above. Plants, used as controls, are treated with the mixture of acetone/tween/DMSO/water not containing the active material. After 24 hours, the plants are contaminated by spraying the leaves with an aqueous suspension of Alternaria brassicae spores (50 000 spores per ml). The spores are collected from a 15-day-old culture. […] Grading (% of efficacy) is carried out 5 days after the contamination, in comparison with the control plants.

[2] = method [a]: HPLC/LC-MS on reversed phase at pH 2.7, 0.1% formic acid in water / acetonitrile, gradient 10% to 95% acetonitrile
[3] = HPLC on reversed phase columns, method [a]: pH 2.7, 0.1% formic acid in water / acetonitrile, linear gradient 10% to 95% acetonitrile
[4] = method [a]: HPLC/LC-MS on reversed phase at pH 2.7, 0.1% formic acid in water / acetonitrile, linear gradient 10% to 95% acetonitrile

| SMILES | log P [1, 2] | % of efficacy (protection) (Pyrenophora teres) [%] | % of efficacy (protection) (Botrytis cinerea) [%] | % of efficacy (protection) (Puccinia recondita) [%] | % of efficacy (protection) (Septoria tritici) [%] | % of efficacy (protection) (Sphaerotheca fuliginea) [%] | % of efficacy (protection) (Uromyces appendiculatus) [%] | log P [1, 3] | log P [1, 4] | % of efficacy (protection) (Phytophthora infestans) [%] | % of efficacy (protection) (Alternaria brassicae) [%] |
| --- | --- | --- | --- | --- | --- | --- | --- | --- | --- | --- | --- |
| COC1C(c2ccc3ncc(Br)cc3c2)=NOC1(C)C(=O)NC(C)C (stereo not drawn) [compound 419] | 2.91[a] | 75 |  |  |  |  |  |  |  |  |  |
| COC1(C(=O)NC2CCC2)CC(c2ccc3ncc(I)cc3c2)=NO1 (stereo not drawn) [compound 482] | 2.95[a] |  | 100 | 83 | 100 | 100 | 98 |  |  |  |  |
| C#Cc1cnc2ccc(C3=NOC(CC)(C(=O)NCC4COC(C)(C)O4)C3)cc2c1 (mixture of isomers) [compound 441] | 2.66[a] |  |  | 83 | 100 | 94 | 91 |  |  |  |  |
| COCC(COC)NC(=O)C1(C)CC(c2ccc3ncc(Br)cc3c2)=NO1 (stereo not drawn) [compound 305] |  |  |  |  |  |  | 80 | 2.56[a] |  |  |  |
| C#Cc1cnc2ccc(C3=NOC(C)(C(=O)NCc4ccc(Cl)cc4)C3)cc2c1 (stereo not drawn) [compound 200] |  | 71 |  |  |  |  |  |  | 3.23^[a] |  |  |
| C#Cc1cnc2ccc(C3=NOC(OC)(C(=O)NCC4COC(C)(C)O4)C3)cc2c1 (stereo not drawn) [compound 476] | 2.35[a] |  | 100 | 90 | 97 | 98 | 77 |  |  | 85 |  |
| C#Cc1cnc2ccc(C3=NOC(C)(C(=O)NCc4ccccc4)C3)cc2c1 (stereo not drawn) [compound 169] |  | 79 | 100 |  | 100 |  |  |  | 2.86^[a] |  |  |
| C#Cc1cnc2ccc(C3=NOC(OC)(C(=O)NCc4cn(CC)nc4C)C3)cc2c1 (racemic) [compound 442] | 2.14[a] |  | 100 | 89 | 97 | 100 | 88 |  |  | 94 |  |
| C#Cc1cnc2ccc(C3=NOC(C)(C(=O)NCc4cccc5ccccc45)C3)cc2c1 (stereo not drawn) [compound 225] |  | 79 |  |  |  |  |  |  | 3.46^[a] |  |  |
| COC1(C(=O)NC2CCC2)CC(c2ccc3ncc(Br)cc3c2)=NO1 (stereo not drawn) [compound 414] | 2.84[a] |  | 100 | 89 | 100 | 98 | 100 |  |  |  |  |
| C#Cc1cnc2ccc(C3=NOC(CC)(C(=O)NCc4cn(CC)nc4C)C3)cc2c1 (racemic) [compound 438] | 2.37[a] |  |  | 88 | 100 | 89 | 97 |  |  | 87 |  |
| CC1(C(=O)NCc2ccc3c(c2)CCO3)CC(c2ccc3ncc(Br)cc3c2)=NO1 (stereo not drawn) [compound 122] |  | 86 |  |  |  |  |  |  | 3.13^[a] |  |  |
| C/C(=N\O)C1(C(=O)NC(C)C)CC(c2ccc3ncc(Br)cc3c2)=NO1 (stereo not drawn) [compound 420] | 2.58[a] |  |  | 94 |  |  | 97 |  |  |  |  |
| C#CC1(NC(=O)C2(C)CC(c3ccc4ncc(Br)cc4c3)=NO2)CCCCC1 (stereo not drawn) [compound 237] |  |  |  |  |  |  | 80 | 3.9^[a] |  |  | 71 |
| CC(C)NC(=O)C1(C(F)F)CC(c2ccc3ncc(Br)cc3c2)=NO1 (stereo not drawn) [compound 480] |  |  |  | 90 |  |  | 83 |  |  |  |  |
| Cc1nn(C)c(C)c1CNC(=O)C1(C)CC(c2ccc3ncc(Br)cc3c2)=NO1 (stereo not drawn) [compound 177] |  | 86 |  |  |  |  |  |  | 2.13^[a] |  |  |
| CC(NC(=O)C1(C)CC(c2ccc3ncc(Br)cc3c2)=NO1)c1ccccn1 (stereo not drawn) [compound 205] |  |  | 84 |  | 100 | 75 | 70 |  | 2.14^[a] |  |  |
| COC1(C(=O)NC2CC2)CC(c2ccc3ncc(I)cc3c2)=NO1 (racemic) [compound 450] | 2.48[a] |  | 100 | 89 | 98 | 98 | 91 |  |  |  |  |
| CCn1cc(CNC(=O)C2(C)CC(c3ccc4ncc(-c5cncnc5)cc4c3)=NO2)c(C)n1 (stereo not drawn) [compound 265] |  |  |  | 88 |  |  | 96 | 1.62^[a] |  |  |  |
| CCn1cc(CNC(=O)C2(C)CC(c3ccc4ncc(-c5ccccc5)cc4c3)=NO2)c(C)n1 (stereo not drawn) [compound 140] |  |  |  | 81 | 80 | 83 | 96 |  | 2.63^[a] |  |  |
| C=C(C)C1(C(=O)NCC2COC(C)(C)O2)CC(c2ccc3ncc(Br)cc3c2)=NO1 (stereo not drawn) [compound 520] |  | 88 |  |  | 79 |  |  | 3.29[a] |  |  |  |
| C#Cc1cnc2ccc(C3=NOC(CC)(C(=O)NC4CCC4)C3)cc2c1 (racemic) [compound 447] | 2.94[a] |  | 97 | 89 | 75 | 75 | 100 |  |  |  |  |
| CCc1cnc2ccc(C3=NOC(C)(C(=O)NCc4cn(CC)nc4C)C3)cc2c1 (stereo not drawn) [compound 256] |  | 75 |  |  | 100 |  |  | 1.72^[a] |  |  |  |
| COC1(C(=O)NCC(O)CO)CC(c2ccc3ncc(Br)cc3c2)=NO1 (stereo not drawn) [compound 477] | 1.59[a] |  |  | 90 |  | 75 | 86 |  |  | 98 |  |
| Cc1c(CNC(=O)C2(C)CC(c3ccc4ncc(Br)cc4c3)=NO2)cnn1C (stereo not drawn) [compound 179] |  | 86 |  |  |  |  |  |  | 2.15^[a] |  |  |
| C#Cc1cnc2ccc(C3=NOC(OC)(C(=O)NC4CCC4)C3)cc2c1 (racemic) [compound 429] | 2.54[a] |  | 100 | 89 | 100 | 83 | 71 |  |  |  |  |
| C#Cc1cnc2ccc(C3=NOC(C)(C(=O)NCc4ccsc4)C3)cc2c1 (stereo not drawn) [compound 515] |  |  | 100 |  | 97 | 93 | 91 | 2.71[a] |  |  |  |
| Cn1cc(NC(=O)C2(C)CC(c3ccc4ncc(Br)cc4c3)=NO2)cn1 (racemic) [compound 434] | 2.17[a] |  |  | 88 | 100 |  | 97 |  |  |  |  |
| CC(C)NC(=O)C1(C)CC(c2ccc3ncc(-c4ccco4)cc3c2)=NO1 (racemic) [compound 382] | 2.77[a] |  |  | 79 |  |  | 89 |  |  |  |  |
